Converted amounts (≈) assume the structure as drawn. Where two headings read alike, the source gives them in different places.
Columns and labels:
Experiment in all cases: MIC, broth micro-dilution technique (CLSI)
[1] = test system: Escherichia coli MC4100 harboring the IMP4213; type: cell-based; conditions: for MIC: Escherichia coli, 22 h
Method in brief: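 CLSI broth microdilution in cation-adjusted Mueller Hinton broth with 0.002% Tween-80. Ten 2-fold dilutions started from 64 μg/ml, or from 4 μg/mL in the modified protocol. Inoculum at final OD600 0.0005; MIC read after 22 h at 35 °C. E. coli strain carries imp4213 (increased outer-membrane permeability).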

[2] = test system: Methicillin Resistant Staphylococcus aureus strain USA 300 (NRS384); type: cell-based; conditions: for MIC: Staphylococcus aureus, 22 h, read-out: MIC (μg/mL) S. aureus
Method in brief: (§1)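 CLSI broth microdilution in cation-adjusted Mueller Hinton broth with 0.002% v/v Tween-80. Compounds were serially 2-fold diluted over 10 concentrations from 64 μg/ml, or from 4 μg/mL in a modified protocol; inoculum at final OD600 0.0005, incubated 35° C for 22 hours.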

MRSA COL (NRS100) = type: cell-based, Staphylococcus aureus; conditions: for MIC: Staphylococcus aureus, 22 h, read-out: MIC (μg/mL) (COL)
Method in brief: as §1

[3] = read-out: MIC (μg/mL) E. coli, Table 2 modified protocol: serial 2-fold dilutions starting from 4 μg/mL, 35° C., 22 hours
[4] = read-out: MIC (μg/mL) E. coli, Table 1 protocol: serial 2-fold dilutions starting from 64 μg/ml, 35° C., 22 hours
[5] = Table 1 protocol: serial 2-fold dilutions starting from 64 μg/ml, 35° C., 22 hours
[6] = Table 2 modified protocol: serial 2-fold dilutions starting from 4 μg/mL, 35° C., 22 hours

Row | Structure (SMILES) | MIC [2] [µg/mL] | MIC (MRSA COL (NRS100)) [µg/mL] | MIC [1, 4] [µg/mL] | MIC [2, 5] [µg/mL] | MIC (MRSA COL (NRS100); [5]) [µg/mL] | other results
1 | CCCCc1ccc(-c2ccc(C(=O)N[C@@H](CCCN)C(=O)N(C)[C@@H]3C(=O)N[C@@H](C)C(=O)N[C@H](CO)Cc4ccc(OCCN)c(c4)-c4cc3ccc4OCCN)cc2)cc1 [Compound 336] | 0.5 (≈ 0.598 µM) | 0.13 (≈ 0.155 µM) |  |  |  | MIC [1, 3]: 0.25 µg/mL (≈ 0.299 µM)
2 | CC(=O)[C@H](C)NC(=O)[C@@H]1Cc2ccc(OCC(=O)O)c(c2)-c2cc(ccc2O)[C@H](N(C)C(=O)[C@H](CCCCN)NC(=O)c2ccc(-c3ccc(Cl)cc3)cc2)C(=O)N[C@@H](C)C(=O)N1 [Compound 207] |  |  | 32 (≈ 36.2 µM) | 32 (≈ 36.2 µM) | 6 (≈ 6.79 µM) | 
3 | CCCCc1ccc(-c2ccc(C(=O)N[C@@H](CCCN)C(=O)N(C)[C@@H]3C(=O)N[C@@H](C)C(=O)N[C@H](C(=O)NS(C)(=O)=O)Cc4ccc(OCCN)c(c4)-c4cc3ccc4OCCN)cc2)cc1 [Compound 337] | 2 (≈ 2.16 µM) | 0.75 (≈ 0.809 µM) |  |  |  | MIC [1, 3]: 0.047 µg/mL (≈ 0.0507 µM)
4 | C[C@@H]1NC(=O)[C@@H](N(C)C(=O)[C@H](CCCCN)NC(=O)c2ccccc2-c2ccc(Cl)cc2)c2ccc(OCCN)c(c2)-c2cc(ccc2OCCN)C[C@@H](C(=O)O)NC1=O [Compound 284] | > 4 | > 4 |  |  |  | MIC [1, 3]: > 4 µg/mL
5 | CCCCc1ccc(-c2cccc(C(=O)N[C@@H](CCCCN)C(=O)N(C)[C@@H]3C(=O)N[C@@H](C)C(=O)N[C@H](C(=O)O)Cc4ccc(OCCN)c(c4)-c4cc3ccc4OCCN)c2)cc1 [Compound 288] | 0.5 (≈ 0.579 µM) | 0.25 (≈ 0.289 µM) |  |  |  | MIC [1, 3]: 0.13 µg/mL (≈ 0.15 µM)
6 | C[C@@H]1NC(=O)[C@@H](N(C)C(=O)[C@H](CCCCN)NC(=O)c2ccc(-c3ccc(Cl)cc3)cc2)c2ccc(O)c(c2)-c2cc(ccc2O)C[C@@H](C(=O)N[C@@H](C)C(=O)c2c[nH]nn2)NC1=O [Compound 230] |  |  | > 64 | 64 (≈ 72.9 µM) | 8 (≈ 9.11 µM) | 
7 | COC(=O)CC(=O)[C@H](C)NC(=O)[C@@H]1Cc2ccc(O)c(c2)-c2cc(ccc2O)[C@H](N(C)C(=O)[C@H](CCCCN)NC(=O)c2ccc(-c3ccc(Cl)cc3)cc2)C(=O)N[C@@H](C)C(=O)N1 [Compound 191] |  |  | > 64 | 32 (≈ 36.2 µM) | 8 (≈ 9.06 µM) | 
8 | C[C@@H]1NC(=O)[C@@H](N(C)C(=O)[C@H](CCCCN)NC(=O)c2ccc(-c3ccc(Cl)cc3)cc2)c2ccc(O)c(c2)-c2cc(ccc2O)C[C@@H](C(=O)N[C@@H](C)C(=O)N2CSC[C@@H]2C(N)=O)NC1=O [Compound 175] |  |  | 32 (≈ 34 µM) | > 64 | 32 (≈ 34 µM) | 
9 | CCCCCCCCCCNCCC(=O)N[C@@H](CCCCN)C(=O)N(C)[C@@H]1C(=O)N[C@@H](C)C(=O)N[C@H](C(=O)N[C@@H](C)C(=O)COC(C)=O)Cc2ccc(O)c(c2)-c2cc1ccc2OCCN [Compound 116] | 0.35 (≈ 0.379 µM) | 0.063 (≈ 0.0682 µM) | 13 (≈ 14.1 µM) |  |  | 
10 | C[C@@H]1NC(=O)[C@@H](N(C)C(=O)[C@H](CCCCN)NC(=O)c2ccc(-c3ccc(Cl)cc3)cc2)c2ccc(O)c(c2)-c2cc(ccc2O)C[C@@H](C(=O)NC/C=C/S(C)(=O)=O)NC1=O [Compound 236] | 48 (≈ 55 µM) | 8 (≈ 9.16 µM) | > 64 |  |  | 
11 | C[C@H](NC(=O)[C@@H]1Cc2ccc(OCCN)c(c2)-c2cc(ccc2OCCN)[C@H](N(C)C(=O)[C@H](CCCCN)NC(=O)c2ccc(-c3ccc(Cl)cc3)cc2)C(=O)N[C@@H](C)C(=O)N1)B1O[C@@H]2C[C@@H]3C[C@@H](C3(C)C)[C@]2(C)O1 [Compound 310] | 0.5 (≈ 0.477 µM) | 0.094 (≈ 0.0897 µM) | 0.19 (≈ 0.181 µM) |  |  | 
12 | C[C@@H]1NC(=O)[C@@H](N(C)C(=O)[C@H](CCCCN)NC(=O)c2ccc(-c3ccc(Cl)cc3)cc2)c2ccc(O)c(c2)-c2cc(ccc2O)C[C@@H](C(=O)N[C@@H](C)C(=O)N(C)[C@@H](CCC(=O)O)C(N)=O)NC1=O [Compound 159] |  |  | 32 (≈ 33 µM) | 23 (≈ 23.7 µM) | 8 (≈ 8.25 µM) | 
13 | CCCCCCCCCC(=O)N[C@@H](CC(N)=O)C(=O)N(C)[C@@H]1C(=O)N[C@@H](C)C(=O)N[C@H](C(=O)N[C@@H](C)C(C)=O)Cc2ccc(OCCN)c(c2)-c2cc1ccc2OCCN.O=CO [Compound 266] |  |  |  |  |  | MIC (μg/mL) E. coli [1, 6]: >4 µg/mL; MIC (μg/mL) S. aureus [2, 6]: 4 µg/mL; MIC (μg/mL) (COL) (MRSA COL (NRS100); [6]): 1.5 µg/mL
14 | CCCCCCCCCC(=O)N[C@@H](CCN)C(=O)N(C)[C@@H]1C(=O)N[C@@H](C)C(=O)N[C@H](C(=O)O)Cc2ccc(OCCN)c(c2)-c2cc1ccc2OCCN [Compound 306] | 3 (≈ 3.98 µM) | 1 (≈ 1.33 µM) |  |  |  | MIC [1, 3]: 0.25 µg/mL (≈ 0.332 µM)
15 | C[C@@H]1NC(=O)[C@@H](N(C)C(=O)[C@H](CCCCN)NC(=O)c2ccc(-c3ccc(Cl)cc3)cc2)c2ccc(O)c(c2)-c2cc(ccc2O)C[C@@H](C(=O)N[C@@H](C)C(=O)N2CCCC23CCNC3=O)NC1=O (stereo partly drawn) [Compound 161] |  |  |  |  |  | MIC (μg/mL) E. coli [1, 5]: 64 µg/mL (≈ 67.4 µM); MIC (μg/mL) S. aureus [2, 5]: 64 µg/mL (≈ 67.4 µM); MIC (μg/mL) (COL) (MRSA COL (NRS100); [5]): 32 µg/mL (≈ 33.7 µM)
16 | CC(=O)[C@H](C)NC(=O)[C@@H]1Cc2ccc(O)c(c2)-c2cc(ccc2OCC(=O)O)[C@H](N(C)C(=O)[C@H](CCCCN)NC(=O)c2ccc(-c3ccc(Cl)cc3)cc2)C(=O)N[C@@H](C)C(=O)N1 [Compound 120] | 51 (≈ 57.7 µM) | 13 (≈ 14.7 µM) | 64 (≈ 72.4 µM) |  |  | 
17 | CCCCCCCCCCS(=O)(=O)N[C@@H](CCCCN)C(=O)N(C)[C@@H]1C(=O)N[C@@H](C)C(=O)N[C@H](C(=O)N[C@@H](C)C(C)=O)Cc2ccc(OCCN)c(c2)-c2cc1ccc2OCCN.O=CO [Compound 256] |  |  |  |  |  | MIC (μg/mL) E. coli [1, 6]: >4 µg/mL; MIC (μg/mL) S. aureus [2, 6]: 0.063 µg/mL; MIC (μg/mL) (COL) (MRSA COL (NRS100); [6]): 0.016 µg/mL
18 | C[C@H](NC(=O)[C@@H]1Cc2ccc(O)c(c2)-c2cc(ccc2O)[C@H](N(C)C(=O)[C@H](CCCCN)NC(=O)c2ccc(-c3ccc(Cl)cc3)cc2)C(=O)N[C@@H](C)C(=O)N1)C(=O)CP(=O)(O)O [Compound 166] | 32 (≈ 35.3 µM) | 8 (≈ 8.84 µM) |  |  |  | MIC ([1]; read-out: MIC (μg/mL) E. coli): > 64 µg/mL
19 | CCCCCCCCC(=O)N[C@@H](CCN)C(=O)N(C)[C@@H]1C(=O)N[C@@H](C)C(=O)N[C@H](C(=O)O)Cc2ccc(OCCN)c(c2)-c2cc1ccc2OCCN [Compound 307] | 4 (≈ 5.41 µM) | 3 (≈ 4.05 µM) |  |  |  | MIC [1, 3]: 1 µg/mL (≈ 1.35 µM)
20 | CCCCc1ccc(-c2ccc(C(=O)N[C@@H](CCCCN)C(=O)N(C)[C@@H]3C(=O)N[C@@H](C)C(=O)N[C@H](C(=O)N[C@@H](C)C(C)=O)Cc4ccc(OCCN)c(c4)-c4cc3ccc4OCCN)cc2)cc1 [Compound 272] |  |  |  |  |  | MIC [1, 3]: 0.25 µg/mL (≈ 0.268 µM); MIC [2, 6]: 0.13 µg/mL (≈ 0.139 µM); MIC (MRSA COL (NRS100); [6]): 0.063 µg/mL (≈ 0.0675 µM)
21 | CCCCCCCCCCNCCC(=O)N[C@@H](CCCCN)C(=O)N(C)[C@@H]1C(=O)N[C@@H](C)C(=O)N[C@H](C(=O)N[C@@H](C)C(=O)N2CCC[C@H]2C(N)=O)Cc2ccc(O)c(c2)-c2cc1ccc2OCCN [Compound 190] |  |  | 32 (≈ 33.2 µM) | 1.7 (≈ 1.76 µM) | 0.25 (≈ 0.26 µM) | 
22 | CCCCCCCCCCNCCC(=O)N(C)[C@@H]1C(=O)N[C@@H](C)C(=O)N[C@H](C(=O)N[C@@H](C)C(C)=O)Cc2ccc(O)c(c2)-c2cc1ccc2O [Compound 196] | 4 (≈ 5.76 µM) | 1 (≈ 1.44 µM) | > 64 |  |  | 
23 | C[C@H](NC(=O)[C@@H]1CCCN1C(=O)[C@H](C)NC(=O)[C@@H]1Cc2ccc(O)c(c2)-c2cc(ccc2O)[C@H](N(C)C(=O)[C@H](CCCCN)NC(=O)c2ccc(-c3ccc(Cl)cc3)cc2)C(=O)N[C@@H](C)C(=O)N1)C(N)=O [Compound 179] | 32 (≈ 32.2 µM) | 16 (≈ 16.1 µM) | 64 (≈ 64.4 µM) |  |  | 
24 | C[C@@H]1NC(=O)[C@@H](N(C)C(=O)[C@H](CCCCN)NC(=O)c2ccc(-c3ccc(Cl)cc3)cc2)c2ccc(O)c(c2)-c2cc(ccc2O)C[C@@H](C(=O)N[C@@H](C)C(=O)N(C)[C@H](C)C(N)=O)NC1=O [Compound 197] |  |  | 32 (≈ 35.1 µM) | 20 (≈ 21.9 µM) | 3.9 (≈ 4.28 µM) | 
25 | CNC(=O)CCC(=O)[C@H](C)NC(=O)[C@@H]1Cc2ccc(O)c(c2)-c2cc(ccc2O)[C@H](N(C)C(=O)[C@H](CCCCN)NC(=O)c2ccc(-c3ccc(Cl)cc3)cc2)C(=O)N[C@@H](C)C(=O)N1 [Compound 149] |  |  | 64 (≈ 71.4 µM) | > 64 | 64 (≈ 71.4 µM) | 

Source: patent US10392422B2, “Macrocyclic broad spectrum antibiotics” (priority 2014, dated 2019)
